The values that follow come from US7482340B2, “Pyridine derivatives useful for inhibiting sodium/calcium exchange system” (Orion Corporation, priority 2003, dated 2009).

In this assay the test system is guinea-pig papillary muscles. Description: Inhibition of ouabain-induced arrhythmias (aftercontractions) in guinea-pig papillary muscles. The following applies: 10 μM concentration; guinea-pig papillary muscle paced at 1 Hz, 37° C. As for the experimental part:
The effects of the compounds of the invention were tested on ouabain-induced arrhythmias in guinea-pig papillary muscles.
Guinea-pig papillary muscles were mounted into horizontal muscle cuvette. A hook connected to force transducer was attached to another end of the muscle. Muscle preparations were electrically paced at 1 Hz with field stimulation via platinum electrodes. Modified Tyrode solution was used for superfusion of muscle preparations. The composition of the Tyrode solution was the following (mM): NaCl 135, MgCl2×6H2O 1, KCl 5, CaCl2×2H2O 2, NaHCO3 15, Na2HPO4×2H2O 1, and glucose 10. The Tyrode solution was gassed with carbogen (95% O2, 5% CO2) to set pH at 7.4. Experiments were carried out at 37° C. Acquisition and analysis of twitch tensions with Action Potential and Force Measurement System (ACFO v1.0, Fision Ltd, Finland).
Ouabain by blocking of sodium-potassium ATPase increases intracellular sodium which is changed for calcium via NCX. Increased intracellular calcium is leading to overload of sarcoplasmic reticulum (SR) and spontaneous calcium release from SR inducing delayed […] (DADs). Equivalence for DADs in force signal is aftercontractions (ACs) which are seen as spontaneous twitches after the pacing controlled twitch.
The antiarrhythmic effects of the title compounds of Examples 13, 33, 14a and 14b were examined.

As for `NCC(=O)Nc1ccc(Oc2ccc3c(c2)CCC(c2ccccc2)O3)nc1` (stereo not shown) [Example 33, 2-Amino-N-[6-(2-phenylchroman-6-yloxy)pyridin-3-yl]acetamide], the “inhibition of the emergency of ouabain-induced second aftercontraction” value is “inhibit completely”.
